# Source: patent EP1071665B1, “SUBSTITUTED INDOLINONES HAVING AN INHIBITING EFFECT ON KINASES AND CYCLINE/CDK COMPLEXES” (Boehringer Ingelheim Pharma GmbH & Co.KG, priority 1998, dated 1999)
# Test system: Leiomyosarcoma Tumorzell-Linie SK-UT-1B
# Assay: Test 2: inhibition of proliferation of cultured human tumour cells (14C-thymidine incorporation)
# Assay type: cell-based
# Details: Skut1B, SK-UT-1B cells, 48 h incubation with compound, then a further 24 h with 14C-thymidine, measured in duplicate, read-out: Hemmung der SKUT-1B-Proliferation IC50
# Description: Inhibierung der Profileration von kultivierten humanen Tumorzellen
# Zellen der Leiomyosarcoma Tumorzell-Linie SK-UT-1B (erhalten von der American Type Culture Collection (ATCC)) wurden in Minimum Essential Medium mit nicht essentiellen Aminosäuren (Gibco), ergänzt mit Natrium-Pyruvat (1 mMol), Glutamin (2 mMol) und 10% fötalem Rinderserum (Gibco) kultiviert und in der log-Wachstumsphase geerntet. Anschließend wurden die SK-UT-1B-Zellen in Cytostar® multi-well Platten (Amersham) mit einer Dichte von 4000 cells per well eingebracht und über Nacht in einem Inkubator inkubiert. Verschiedene Konzentrationen der Verbindungen (gelöst in DMSO; Endkonzentration: <1%) wurden zu den Zellen zugegeben. Nach 48 Stunden Inkubation wurde ^14C-Thymidin (Amersham) zu jedem well zugesetzt, und es wurde weitere 24 Stunden inkubiert. Die Menge an ^14C-Thymidin, die in Gegenwart des Inhibitors in die Tumorzellen eingebaut wurde und die die Zahl der Zellen in der S-Phase repräsentiert, wurde in einem Wallace 1450 Microbeta Flüssig Scintillations Zähler gemessen. IC50-Werte für die Inhibierung der Proliferation (= Inhibierung von eingebautem ^14C-Thymidin) wurden - unter Korrektur für die Hintergrundstrahlung - berechnet. Alle Messungen wurden zweifach ausgeführt.
row,SMILES,IC50 [nM]
1,"CCN(CC)CCCOc1ccc(N/C(=C2\C(=O)Nc3ccc(C(N)=O)cc32)c2ccccc2)cc1 [4(129), 3-Z-[1-(4-(3-Diethylamino-propoxy)-phenylamino)-1-phenylmethylen] -5-amido-2-indolinon-trifluoracetat]",40
2,"NC(=O)c1ccc2c(c1)/C(=C(/Nc1ccc(CNCc3ccccc3)cc1)c1ccccc1)C(=O)N2 [4(122), 3-Z-[1-(4-(N-(Phenyl-methyl)-aminomethyl)-phenylamino)-1-phenyl-methylen]-5-amido-2-indolinon-trifluoracetat]",40
3,"NC(=O)c1ccc2c(c1)/C(=C(/Nc1ccc(CN3CCCCCC3)cc1)c1ccccc1)C(=O)N2 [Beispiel 4(54), 3-Z-[1-(4-Hexamethyleniminomethyl-phenylamino)-1-phenylmethylen]-5-amido-2-indolinon-trifluoracetat]",30
4,"NC(=O)c1ccc2c(c1)/C(=C(/Nc1ccccc1)c1ccccc1)C(=O)N2 [Beispiel 4(2), 3-Z-(1-Phenylamino-1-phenyl-methylen)-5-amido-2-indolinon]",170
5,"NC(=O)c1ccc2c(c1)/C(=C(/Nc1ccc(Br)cc1)c1ccccc1)C(=O)N2 [Beispiel 4(14), 3-Z-[1-(4-Brom-phenylamino)-1-phenyl-methylen]-5-amido-2-indolinon]",180
6,"CN(C)Cc1ccc(N/C(=C2\C(=O)Nc3ccc(C(N)=O)cc32)c2ccccc2)cc1 [Beispiel 4(62), 3-Z-[1-(4-Dimethylaminomethyl-phenylamino)-1-phenyl-methylen]-5-amido-2-indolinon]",50
7,"NC(=O)c1ccc2c(c1)/C(=C(/Nc1ccc(CN3CCCCC3)cc1)c1ccccc1)C(=O)N2 [Beispiel 4(53), 3-Z-[1-(4-Piperidinomethyl-phenylamino)-1-phenyl-methylen] -5-amido-2-indolinon-trifluoracetat]",10
8,"CCCCNCc1ccc(N/C(=C2\C(=O)Nc3ccc(C(N)=O)cc32)c2ccccc2)cc1 [4(120), 3-2-[1-(4-(N-Butyl-aminomethyl)-phenylamino)-1-phenylmethylen]-5-amido-2-indolinon-trifluoracetat]",40
9,"CN(Cc1ccccc1)Cc1ccc(N/C(=C2\C(=O)Nc3ccc(C(N)=O)cc32)c2ccccc2)cc1 [Beispiel 4(94), 3-Z-[1-(4-(N-Methyl-N-benzyl-amino-methyl)-phenylamino)-1-phenyl-methylen]-5-amido-2-indolinon-trifluoracetat]",30
10,"NC(=O)c1ccc2c(c1)/C(=C(/Nc1ccc(CN3CCC(Cc4ccccc4)CC3)cc1)c1ccccc1)C(=O)N2 [Beispiel 4(60), 3-Z-[1-(4-(4-Benzyl-piperidinomethyl)-phenylamino)-1-phenyl-methylen]-5-amido-2-indolinon]",30
